Test results from publication PMC2396520, “Antibody Complementarity-Determining Regions (CDRs) Can Display Differential Antimicrobial, Antiviral and Antitumor Activities” (PLoS ONE, 2008).

What was measured:
HUVEC = assay: In vitro Matrigel angiogenesis assay; format: cell-based, human; conditions: peptides at 1 mM, C7/pc42 H2 at 50 µM; 18 h, 37°C; triplicate wells
Method: Matrigel™ Matrix (B&D Biosciences, Bedford, MA, USA) was thawed on ice, added (10 µL/well) to coat 96-well plates, and allowed to polymerize for 1 h at 37°C. Human umbilical vein endothelial cells (HUVEC) (5×10^3cells/well) were added alone or mixed with mAb C7 CDR peptides in 100 µL of RPMI medium supplemented with 0.2% of FCS in each well. All peptides were used at 1 mM, with the exception of mAb C7/pc42 H2 that was used at 50 µM. The plates were incubated at 37°C for 18 h and images were captured at 8× magnification with a Sony Cyber-shot camera coupled to a light microscope. The number of pro-angiogenic structures (closed rings formed at a given time by endothelial cell sprouting) was counted from 3 different wells, and the average value determined in each system, [45]. The assay was repeated at least three times.

R5 HIV-1 = format: cell-based; conditions: ex vivo, 10 µg/ml, day 10 of culture, p24, mean of 3 determinations
Method: (§1) Briefly, for endogenous HIV-1 replication assays peripheral blood mononuclear cells (PBMCs) from R5 HIV-1-infected patients characterized by high viral RNA titers in plasma and cell-associated viremia were cultured in 96-well plates at 1×10^6 cells/mL in RPMI 1640 medium with 10% fetal calf serum (FCS) and 20 U/mL of rIL-2. Exogenous rIL-2 was added every 3–4 days. Cultures were treated with synthetic mAb CDRs and mAb C7/pc42 H1 asd at 10 µg/mL during the time of culture. Virus production on days 5 and 10 was assayed in the supernatants using ultrasensitive Alliance® HIV-1 p24 ELISA kit (Perkin Elmer); p24 Ag in the supernatants of untreated cultures corresponded to 100% of viral production. For exogenous infection assays, PHA-stimulated PBMCs obtained from healthy individuals were infected with BaL (R5) or IIIB (X4) HIV-1 strain at a median tissue culture infective dose (TCID50) of 500 TCID50/ml. After 2 h of adsorption, the cells were washed, suspended at 2×10^5 cells/ml in medium and cultured in 96-well cultures plates. At time zero of infection, synthetic peptides were added to the cultures at 10 µg/ml and were maintained throughout the experiment. All assays were performed in triplicate. Virus production was assayed 10 days after infection in the supernatants of HIV-1-infected PBMCs by p24 assay.

Candida albicans UP10 = format: cell-based; conditions: CDR peptides; 100 µg/mL in distilled water, 37°C, 6 h, CFU after 48–72 h, triplicate; C. albicans UP10
Method: The alanine substituted derivatives (asd), defined according to the position held by the alanine-substituted aminoacid, were tested in the same biological assays to critically establish the functional relevance of each residue [5]. In vitro microbicidal activity of CDR peptides and selected asd against C. albicans UP 10 (clinical isolate from the fungi collection of the University of Parma) and C. albicans NCPF 3153 (National Collection of Pathogenic Fungi, Bristol, UK) were used for the in vitro experiments.
The microbicidal activity of synthetic CDRs against C. albicans strains was preliminarily evaluated by testing 100 µg/mL of each synthetic peptide by colony forming unit (CFU) assays as previously described [5]. Briefly, 10 µL of a distilled water suspension containing ∼5×10^4/mL germinating yeast cells were added to 90 µL of distilled water containing the synthetic peptide to be tested. Yeast suspensions were incubated at 37°C for 6 h. After incubation, the cell suspensions were plated on Sabouraud dextrose agar, incubated at 30°C and observed for CFU determination after 48–72 hours. Each assay was carried out in triplicate. […] EC50 was calculated by nonlinear regression analysis using Graph Pad Prism 4.01 software, San Diego, CA, USA.

HIV-1 BaL (R5) = assay: In vitro exogenous HIV-1 infection of PHA-stimulated PBMCs, BaL strain (p24 assay); format: cell-based; conditions: day 10, p24, mean of 3 determinations
Method: as §1

HIV-1 IIIB (X4) = assay: In vitro exogenous HIV-1 infection of PHA-stimulated PBMCs, IIIB strain (p24 assay); format: cell-based; conditions: day 10, p24, mean of 3 determinations
Method: as §1

In the case of “WASTRES [C7 L2, synthetic peptide identical to light chain CDR L2 of mouse mAb C7]”, the “endothelial cell sprouting on Matrigel” value (HUVEC) is reported as “inhibited endothelial cell sprouting”, the “% inhibitory activity (10 µg/ml), endogenous HIV-1 replication” value (R5 HIV-1) is reported as 38% and the “Anti-Candida activity (%) at 100 µg/mL” value (Candida albicans UP10) is reported as 49.8%. The “% inhibitory activity (10 µg/ml), exogenous HIV-1 replication, BaL” value (HIV-1 BaL (R5)) was 59% and the “% inhibitory activity (10 µg/ml), exogenous HIV-1 replication, IIIB” value (HIV-1 IIIB (X4)) was 4%.
